“And” between values parts separate entries of the source, which are not always exact repeats. Equal values may be shown once. Where a name gives a salt, the structure may show the parent alone.
Key:
[1] = test system: sea urchin egg fertilization (sperm-egg fusion); test: Sea urchin fertilization assays; format: cell-based
Procedure: A simple sea urchin assay was used to detect and quantitate the ability of sulfate esters to block sperm-egg fusion. Sea urchin sperm was added to freshly collected eggs in the presence and absence of increasing amounts of the sulfate ester zosteric acid, and the eggs were subsequently scored for successful fertilization. Fertilization assays. Healthy sea urchins were induced to spawn by injection with 0.5 M KCL solution. Freshly collected eggs were gently washed and resuspended in filtered sea water (FSW, pH 8.2) and aliquotted into separate tubes for fertilization assays. Zosteric acid was added to each tube from a concentrated stock dissolved in FSW (pH 8.2), along with additional FSW to ensure a constant volume in each tube. Equal amounts of sperm were added to each tube and percent fertilization was determined by direct microscopic counting. Eggs with elevated fertilization membranes were scored as fertilized. Assays were performed at sperm-limiting concentrations that allowed 95–99% fertilization in the absence of zosteric acid.

[2] = test system: Shewanella putrefaciens cell surface; test: Cell surface binding assay (immuno-gold staining, electron microscopy); settings: cultures grown with 16 mM zosteric acid
Procedure: The marine bacterium Shewanella putrefaciens were grown in cultures containing zosteric acid and were subsequently examined for bound zosteric acid using immuno-gold staining with the antibody described above.
Cell Surface Binding Assays. The marine bacterium Shewanella putrefaciens was grown in marine broth in the presence of 16 mM zosteric acid. Dense log phase cells were harvest after 5 hours growth, and preserved in 0.5× Kamofsky's fixative (2% formaldehyde, 2.5% gluturaldehyde, 0.05 M sodium cacodylate, 0.25 M sucrose, pH 7.4) for 2 hours, and then transferred to a cacodylate buffer (0.05 M sodium cacodylate, pH 7.4) for storage. Cells were prepared for electron microscopic examination using immuno-gold staining techniques (Harlow, E. and Laine, D., Antibodies, A Laboratory Manual, Cold Spring Harbor Laboratory, 359–421; Roth et al., J. Histochem. Cytochem. 26: 1074–1081 (1978)). The primary antibody used in this study was an anti-zosteric acid polyclonal antibody (BAbCo, Richmond, Calif.).

equine erythrocytes = test: Red blood cell agglutination assays; format: cell-based; settings: for concentrations producing erythrocyte agglutination: washed equine erythrocytes, 0.005 to 5.0 mg/mL tested
Procedure: Red Blood Cell agglutination assays. Washed equine erythrocytes suspended in 1 mg/mL sodium citrate were placed in microtiter plates designed with wells containing hemispherical bottoms. Negative controls (no zosteric acid) were diluted in isotonic saline solution. Zosteric acid treated cells were diluted with saline containing zosteric acid at eight concentrations ranging from 0.005 to 5.0 mg/mL. Positive controls were exposed to the same range of high molecular weight heparin sulfate concentrations.

Aureobasidium pullulans = test: Fungal attachment and growth assay on glass slides; format: cell-based, Aureobasidium pullulans (ATCC 34261)
Procedure: Aureobasidium pullulans (ATCC 34261) was grown on potato-dextrose agar and harvested according to ASTM G-21-90 protocols (American Society for Testing and Materials (1986) […]-86, ASTM, Philadelphia, Pa.). The resulting spore suspension was used to inoculate liquid culture tubes containing 35 mL of growth medium (nutrient salts with 5 mM sucrose) and 15 mM zosteric acid. Zosteric acid-free medium was prepared as a control. A sterile microscope slide was added to each tube, the tubes were sealed and placed on a rotary shaker table at room temperature. One tube was harvested each day by removing the slide and counting the number of attached spores by direct microscopic counts, as described above.

Shewanella putrefaciens = test: Bacterial agglutination assays (growth and agglutination in liquid culture); format: cell-based
Procedure: To further investigate the role of sulfate esters in agglutination, the ability of sulfate esters to facilitate the agglutination of bacterial cells was investigated. Log-phase cultures grown in the presence of zosteric acid were monitored spectrophotometrically (OD600) for growth, and for agglutination in the presence of increasing amounts of zosteric acid. Bacterial agglutination assays. Log-phase cultures of Shewanella putrefaciens were grown in complete seawater medium containing zosteric acid at a range of concentrations up to 20 mM. Cultures were counted for viable colony forming units at eight hours.

[3] = test system: clot formation (prothrombin clotting time); test: Prothrombin clotting time assays; format: biochemical; settings: human serum
Procedure: Clotting assays. Clotting time assays were performed using commercial kits (Sigma Chemical Co.) for prothrombin clotting time. Serum was harvested from 30 mL of whole human blood obtained by venous puncture using centrifugation to remove blood cells. Zosteric acid and high MW heparin were added to separate aliquots of the serum, producing concentrations from 0 to 5.0 mg/mL. Clotting times were determined for each concentration in duplicate according to the protocols provided with the kit.

[4] = test system: agglutination of sea urchin eggs by purified bindin; test: Sea urchin egg agglutination assays with purified bindin; format: cell-based
Procedure: Sea urchin egg agglutination assays. Freshly spawned eggs were suspended in acidic seawater (pH 5) for 5 minutes to remove the outer jelly coat, and then washed 5 times in normal FSW (pH 8.2). Eggs were then transferred into plastic petri dished containing a range of zosteric acid concentrations and incubated for 15 minutes. Purified bindin (D. Epel, Stanford University) was added to the eggs at concentrations ranging from 1.2 to 12 μg/mL. The mixtures were gently agitated on a rotary shaker for 5 minutes and visually examined for agglutination. Bovine serum albumen (BSA) was used in separate assays to control for nonspecific agglutination of the dejellied eggs.

Oceanosprillum = Oceanosprillum adhesion test on glass slides; format: cell-based; settings: 5 mM in artificial seawater, 6-hour period
Procedure: Oceanosprillum adhesion test Each test consisted of a control set (with no sulfate esters) and sample sets containing the test molecules. The first test group consisted of a control sample set, a zosteric acid (5 mM) sample set, and an octyl sulfate (5 mM) sample set. The second test group consisted of a control sample set, a zosteric acid (5 mM) sample set, and a methyl sulfate (5 mM) sample set. Sample sets consisted of five 50 mL sterile centrifuge tubes, with each tube containing a glass microscope slide, 50 ml of artificial seawater (ASTM—American Society for testing and materials) with the dissolved sulfate ester, inoculated with an Oceanosprillum culture at 1×10^6 cells/mL. Sample sets were incubated at 23 C, with shaking so that the surface of the slides were horizontal. Over a 6-hour period, individual tubes were taken from the sample sets and tested for microbial adhesion.
(§1) Determination of bacterial adhesion. Samples were removed from the shaker and 1 mL of 50× acridine orange stain (0.5 g/L acridine powder in water) was added to the tube. The stain was allowed to react for 4 minutes. The slides were then removed and fitted with a long cover slip and immediately counted with an epifluorescent microscope fitted with a 100× (oil) objective lens on the under side of the slide. The size of the counting field was 10×10 μm. A total of 20 counts per slide were performed and averaged to yield the number of cells per μm^2, which was in turn converted to cells per mm^2. Error was assigned at 10% which is the standard accepted error for direct counting of bacterial cells.

Alteromonas atlantica = Alteromonas atlantica adhesion tests on glass slides; format: cell-based; settings: for Alteromonas atlantica adhesion relative to controls: 5 mM dissolved in modified ASTM seawater
Procedure: Alteromonas atlantica adhesion tests. The tests consisted of a control sample set, a zosteric acid (5 mM) sample set, an octyl sulfate (5 mM) sample set, and a methyl sulfate (5 mM) set. A sample set consisted of six 60 mL sterile centrifuge tubes. Each tube contained a glass microscope slide and 50 mL of modified ASTM seawater (American Society for Testing and Materials (1986) D1141-86, ASTM, Philadelphia, Pa.) with dissolved agent, inoculated with Alteromonas atlantica culture to an initial cell density of 1×10^6 cells/mL. The modified seawater consisted of normal ASTM seawater ingredients, however the carbon source glycerol, was only 1000th the normal strength, […], and was void of an amino acid source (casamino acids), in order to allow enough carbon for attachment, but not for significant cell growth.
as §1

[5] = test system: natural marine algal biofilms; test: Marine algal biofilm development on RTV-11 silicone coating in running raw seawater; format: cell-based, marine algae; settings: 25% (wt/wt) in RTV-11 silicone coated on glass slides; 26 days in running seawater
Description: A 30% (w/v) solution of octyl sulfate in water (Stepan Chemical Co.) was evaporated to dryness under a stream of room temperature air, to recover pure octyl sulfate (FIG. 1). The dry octyl sulfate was incorporated into RTV-11 silicone polymer at a loading of 25% (wt/wt) (RTV-11 silicone, catalyst and primer obtained from General Electric). The mixture was applied to three glass slides previously primed with silicone primer, and allowed to cure to dryness. Three primed glass slides coated with pure RTV-11 served as agent-free controls. After complete drying, the absorption properties of each slide were measured using a Shimadzu UV-2101 spectrophotometer fitted with an integrating sphere. Slides were then placed in a tank of running raw seawater and allowed to incubate outdoors in natural sunlight for 26 days. Water temperature was nominally 15 C. Spectrophotometric determination of biofilm accumulation was measured on each slide periodically. Relative algal biomass was calculated as the ratio of absorption at 680 nm, contributed by chlorophyll a, to that at 750 nm, a wavelength not absorbed by chlorophyll, to correct for differences in turbidity and scattering properties of the different slides.

[6] = test system: polyclonal antibodies specific for zosteric acid; test: Preliminary testing of anti-zosteric acid polyclonal antibodies for cross reactivity; format: binding
Description: To investigate the mechanism behind the AF activity of sulfate esters, polyclonal antibodies specific for the sulfate ester zosteric acid were generated (BAbCo, Berkeley, Calif.). […] These antibodies were then used to investigate whether the sulfate ester AF agent zosteric acid directly binds fouling organisms.

## O=C(O)/C=C/c1ccc(OS(=O)(=O)O)cc1 [zosteric acid]
[1]
  concentration range effective in blocking sea urchin fertilization: 1 to 10 mM
[1]; 1 mg/mL
  fertilization remaining: 21%
[1]; equal mass concentrations, 1 mg/mL
  effectiveness at inhibiting fertilization relative to heparin: at least twice as effective
[1]; sea urchin eggs, sperm-limiting concentrations
  concentrations that completely blocked fertilization: higher than 0.5 mg/mL and > 1.5 mM
[1]; sea urchin sperm exposed to zosteric acid
  effect on sperm viability or motility: no detected effect
[1]; unfertilized eggs of highest treatment washed and re-exposed to fresh sperm
  reversibility of fertilization inhibition: reversible
[2]
  zosteric acid bound to bacterial cell surface (immuno-gold staining): bound to the surface of the bacteria
Equine erythrocytes; from erythrocyte agglutination concentrations
  reactivity with cell surface glycoproteins and polysaccharides relative to high molecular weight heparin: eight times more reactive
Equine erythrocytes
  concentrations producing erythrocyte agglutination: ≥ 0.175 mg/mL
Aureobasidium pullulans; 15 mM in liquid culture
  filamentous growth or mycelial development of colonies: no evidence of filamentous growth or mycelial development
Aureobasidium pullulans; 15 mM, after 5 days incubation, control more than 600
  germinated fungal colonies on slides: less than 20 germinated fungal colonies/mm^2
Aureobasidium pullulans; 15 mM, clouding of tubes after Day 1
  growth of fungal spores in the medium: observed to grow
Shewanella putrefaciens; at eight hours, among the different cultures
  counts of viable colony forming units: no difference in cell density
Shewanella putrefaciens; concentration dependent, up to 20 mM
  agglutination of S. putrefaciens: significant agglutination
Shewanella putrefaciens; concentrations up to 16 mM
  growth of S. putrefaciens in liquid culture: did not inhibit the growth
[3]
  concentrations effective at preventing clot formation: exceeding 10 mg/ml
[4]; [ZA] 0.015 mg mL^−1
  Agglutination: Yes
[4]; [ZA] 0.03 mg mL^−1
  Agglutination: Yes
[4]; [ZA] 0.075 mg mL^−1
  Agglutination: Yes
[4]; [ZA] 0.15 mg mL^−1
  Agglutination: Yes
[4]; [ZA] 0.30 mg mL^−1
  Agglutination: Yes
[4]; [ZA] 0.75 mg mL^−1
  Agglutination: Yes
[4]; [ZA] 1.5 mg mL^−1
  Agglutination: No
[4]; [ZA] 3 mg mL^−1
  Agglutination: No
Oceanosprillum
  Oceanosprillum adhesion (bacterial attachment) relative to control: roughly a two fold reduction
Alteromonas atlantica
  Alteromonas atlantica adhesion relative to controls: significant reduction

## heparin [reference compound]
[1]; 1 mg/mL
  reduction of fertilization: approximately 50%
Equine erythrocytes
  concentrations producing erythrocyte agglutination: greater than 0.75 mg/mL
[3]
  concentrations effective at preventing clot formation: below 0.1 mg/ml

## CCCCCCCCOS(=O)(=O)[O-].[Na+] [octyl sulfate]
[5]
  algal biofilm development relative to controls lacking octyl sulfate: five fold less
Oceanosprillum
  Oceanosprillum adhesion (bacterial attachment) relative to control: to an even greater extent than zosteric acid
Alteromonas atlantica
  Alteromonas atlantica adhesion relative to controls: slightly higher inhibitory activity than zosteric acid

## O=C(O)/C=C/c1ccc(O)cc1 [coumaric acid, reference compound]
[1]; 1 mg/mL
  effect on egg fertilization: no effect

## COc1cc(/C=C/C(=O)O)ccc1O [ferulic acid]
[6]
  cross reactivity with antibodies specific for zosteric acid: no cross reactivity

## COS(=O)(=O)O [methyl sulfate]
Oceanosprillum
  Oceanosprillum adhesion (bacterial attachment) relative to control: roughly a two fold reduction
Alteromonas atlantica; 5 mM, constant after 120 minutes, controls greater than 700,000
  Alteromonas atlantica adhesion: 150,000 cells/mm^2

## O=C(O)C=Cc1ccccc1 [cinnamic acid]
[6]
  cross reactivity with antibodies specific for zosteric acid: no cross reactivity

## CCC(C)(C)c1ccc(OS(=O)(=O)Cl)cc1 [4-PPCS, 4 t-Pentyl Phenyl Chlorosulfate]
[1]; contact with 4-PPCS
  impact on sperm motility: no adverse impacts
[1]; exceeding the binding capacity of 4-PPCS in solution
  inhibition when more sperm were added to the medium: could be washed out
[1]; in the range of 1–10 mM
  effectiveness in blocking sea urchin fertilization: ~100%
